≈ marks a conversion by molar mass, not a printed value. Calls of active or inactive are those of the source. No cut-off for these calls is given here.
Assays:
[1] = system: Staphylococcus epidermidis; experiment: Bactericidal activity against Staphylococcus epidermidis isolate 01-55 at >=1 MIC up to 8 hrs by time-kill study; format: functional, organism-based
[2] = system: Enterococcus faecalis; experiment: Antibacterial activity against gentamicin-resistant Enterococcus faecalis clinical isolate after 18 hrs by agar dilution method; format: functional
[3] = system: Staphylococcus aureus; experiment: Antibacterial activity against Staphylococcus aureus ATCC 29213 after 18 hrs by agar dilution method; format: functional; details: ATCC 29213, 18 h
[4] = system: Citrobacter freundii; experiment: Antibacterial activity against gentamicin-resistant Citrobacter freundii clinical isolate after 18 hrs by agar dilution method; format: functional
[5] = system: Klebsiella pneumoniae; experiment: Antibacterial activity against Klebsiella pneumoniae isolate 01-21 at 1 MIC up to 8 hrs by time-kill study; format: functional, organism-based
[6] = system: Citrobacter freundii; experiment: Antibacterial activity against gentamicin-resistant Citrobacter freundii clinical isolate assessed as susceptible isolates after 18 hrs by agar dilution method; format: functional
[7] = system: Escherichia coli; experiment: microbe, parasite or virus in culture; details: ATCC 25922, 18 h
Description: Antibacterial activity against Escherichia coli ATCC 25922 after 18 hrs by agar dilution method

[8] = system: Klebsiella pneumoniae; experiment: Antibacterial activity against non-gentamicin-resistant Klebsiella pneumoniae clinical isolate after 18 hrs by agar dilution method; format: functional
[9] = system: Proteus mirabilis; experiment: Antibacterial activity against gentamicin-resistant Proteus mirabilis clinical isolate assessed as susceptible isolates after 18 hrs by agar dilution method; format: functional
[10] = system: Proteus mirabilis; experiment: Antibacterial activity against gentamicin-resistant Proteus mirabilis clinical isolate after 18 hrs by agar dilution method; format: functional
[11] = system: Citrobacter koseri; experiment: Antibacterial activity against non-gentamicin-resistant Citrobacter diversus clinical isolate after 18 hrs by agar dilution method; format: functional
[12] = system: Klebsiella aerogenes; experiment: Antibacterial activity against gentamicin-resistant Enterobacter aerogenes clinical isolate assessed as susceptible isolates after 18 hrs by agar dilution method; format: functional
[13] = system: Staphylococcus aureus; experiment: Bactericidal activity against Staphylococcus aureus ATCC 29213 at >=1 MIC up to 8 hrs by time-kill study; format: functional, organism-based
[14] = system: Klebsiella aerogenes; experiment: Antibacterial activity against gentamicin-resistant Enterobacter aerogenes clinical isolate after 18 hrs by agar dilution method; format: functional
[15] = system: Escherichia coli BL21(DE3); experiment: Ratio of Vmax to Km for AAC(6')-APH(2'') in Escherichia coli BL21(DE3) assessed as production of free pyridine-4-thiolate relative to netilmicin
[16] = system: Citrobacter koseri; experiment: Antibacterial activity against non-gentamicin-resistant Citrobacter diversus clinical isolate assessed as susceptible isolates after 18 hrs by agar dilution method; format: functional
[17] = system: Klebsiella aerogenes; experiment: Antibacterial activity against non-gentamicin-resistant Enterobacter aerogenes clinical isolate assessed as susceptible isolates after 18 hrs by agar dilution method; format: functional
[18] = system: Escherichia coli BL21(DE3); experiment: Acetylation activity of AAC(6')-APH(2'') in Escherichia coli BL21(DE3) assessed as production of free pyridine-4-thiolate relative to netilmicin
[19] = system: Escherichia coli BL21(DE3); experiment: Ratio of Vmax to Km for AAC(6')-APH(2'') in Escherichia coli BL21(DE3) assessed as oxidation of NADH by pyruvate kinase relative to netilmicin
[20] = system: Haemophilus influenzae; experiment: Antibacterial activity against non-gentamicin-resistant Haemophilus influenzae clinical isolate assessed as susceptible isolates after 18 hrs by agar dilution method; format: functional, organism-based
[21] = system: Escherichia coli BL21(DE3); experiment: Phosphorylation activity of AAC(6')-APH(2'') in Escherichia coli BL21(DE3) assessed as oxidation of NADH by pyruvate kinase
[22] = system: Staphylococcus epidermidis; experiment: Antibacterial activity against Staphylococcus epidermidis isolate 01-55 after 18 hrs by agar dilution method; format: functional; details: isolate 01-55, 18 h
[23] = system: Citrobacter freundii; experiment: Antibacterial activity against non-gentamicin-resistant Citrobacter freundii clinical isolate assessed as susceptible isolates after 18 hrs by agar dilution method; format: functional
[24] = system: Pseudomonas aeruginosa; experiment: Antibacterial activity against gentamicin-resistant Pseudomonas aeruginosa clinical isolate after 18 hrs by agar dilution method; format: functional
[25] = system: Escherichia coli; experiment: Antibacterial activity against Escherichia coli ATCC 25922 at MIC up to 8 hrs by time-kill study; format: functional, organism-based
[26] = system: Haemophilus influenzae; experiment: Antibacterial activity against non-gentamicin-resistant Haemophilus influenzae clinical isolate after 18 hrs by agar dilution method; format: functional
[27] = system: Escherichia coli; experiment: Antibacterial activity against non-gentamicin-resistant Escherichia coli clinical isolate assessed as susceptible isolates after 18 hrs by agar dilution method; format: functional
[28] = system: Enterobacter cloacae; experiment: Antibacterial activity against non-gentamicin-resistant Enterobacter cloacae clinical isolate assessed as susceptible isolates after 18 hrs by agar dilution method; format: functional
[29] = system: Klebsiella pneumoniae; experiment: Antibacterial activity against Klebsiella pneumoniae isolate 01-21 after 18 hrs by agar dilution method; format: functional; details: isolate 01-21, 18 h
[30] = system: Escherichia coli BL21(DE3); experiment: Phosphorylation activity of AAC(6')-APH(2'') in Escherichia coli BL21(DE3) assessed as oxidation of NADH by pyruvate kinase relative to verdamicin
[31] = system: Pseudomonas aeruginosa; experiment: Antibacterial activity against non-gentamicin-resistant Pseudomonas aeruginosa clinical isolate after 18 hrs by agar dilution method; format: functional
[32] = system: Pseudomonas aeruginosa; experiment: Antibacterial activity against gentamicin-resistant Pseudomonas aeruginosa clinical isolate assessed as susceptible isolates after 18 hrs by agar dilution method; format: functional
[33] = system: Pseudomonas sp.; experiment: Antibacterial activity against non-gentamicin-resistant Pseudomonas spp. clinical isolate after 18 hrs by agar dilution method; format: functional
[34] = system: Enterobacter cloacae; experiment: Antibacterial activity against gentamicin-resistant Enterobacter cloacae clinical isolate assessed as susceptible isolates after 18 hrs by agar dilution method; format: functional

CCN[C@@H]1C[C@H](N)[C@@H](O[C@@H]2OC(C(C)N)=CC[C@@H]2N)[C@H](O)[C@H]1O[C@H]1OC[C@](C)(O)[C@H](NC)[C@H]1O (stereo not given in full) [VERTILMICIN]
Activity [1]: Dose-dependent effect
MIC50 [2]: 4 mg/L (≈ 8.17 µM)
MIC90 [2]: > 128 mg/L
MIC [3]: 0.125 mg/L (≈ 0.255 µM)
MIC50 [4]: 8 mg/L (≈ 16.3 µM)
MIC90 [4]: 32 mg/L (≈ 65.4 µM)
Activity [5]: Dose-dependent effect
Activity [6]: 52.6%
MIC [7]: 0.25 mg/L (≈ 0.511 µM)
MIC50 [8]: 0.25 mg/L (≈ 0.511 µM)
MIC90 [8]: 0.5 mg/L (≈ 1.02 µM)
Activity [9]: 36.4%
MIC50 [10]: 32 mg/L (≈ 65.4 µM)
MIC90 [10]: > 128 mg/L
MIC [11]: 0.25 mg/L (≈ 0.511 µM)
MIC50 [11]: 0.25 mg/L (≈ 0.511 µM)
MIC90 [11]: 0.5 mg/L (≈ 1.02 µM)
Activity [12]: 30%
Activity [13]: Dose-dependent effect
MIC50 [14]: 16 mg/L (≈ 32.7 µM)
MIC90 [14]: > 128 mg/L
Vmax/Km [15]: 4.2%
Activity [16]: 100%
Activity [17]: 98.1%
Vmax [18]: 6.5%
Vmax/Km [19]: 19.9%
Activity [20]: inactive
Km [21]: 104 µM
MIC [22]: 0.25 mg/L (≈ 0.511 µM)
Activity [23]: 90%
MIC50 [24]: 32 mg/L (≈ 65.4 µM)
MIC90 [24]: > 128 mg/L
Activity [25]: Dose-dependent effect
MIC50 [26]: 1 mg/L (≈ 2.04 µM)
MIC90 [26]: 1 mg/L (≈ 2.04 µM)
Activity [27]: 100%
Activity [28]: 100%
MIC [29]: 0.25 mg/L (≈ 0.511 µM)
Vmax [30]: 49.8%
MIC50 [31]: 8 mg/L (≈ 16.3 µM)
MIC90 [31]: 32 mg/L (≈ 65.4 µM)
Activity [32]: 17.6%
MIC50 [33]: 8 mg/L (≈ 16.3 µM)
MIC90 [33]: 16 mg/L (≈ 32.7 µM)
Activity [34]: 26.3%
